Data reported in patent US11447505B1, “Pyrrolo[2,3-b]pyridine compounds and their use in the treatment of cancer” (priority 2017, dated 2022).

What was measured:
MRCKβ = MRCKβ (Homo sapiens (Human), UniProt Q9Y5S2); test: MRCKβ kinase assay (IMAP fluorescence polarization); format: biochemical; conditions: 1 μM ATP; read-out: MRCK-B Average Ki
Excerpt: MRCKα, MRCKβ, ROCK1 and ROCK2 Kinase Assays

ROCK1 = ROCK1 (Homo sapiens (Human), UniProt Q13464); conditions: read-out: ROCK1 Average Ki; 1 μM ATP
Chain of ROCK1 (Q13464 2-1354 limits assumed): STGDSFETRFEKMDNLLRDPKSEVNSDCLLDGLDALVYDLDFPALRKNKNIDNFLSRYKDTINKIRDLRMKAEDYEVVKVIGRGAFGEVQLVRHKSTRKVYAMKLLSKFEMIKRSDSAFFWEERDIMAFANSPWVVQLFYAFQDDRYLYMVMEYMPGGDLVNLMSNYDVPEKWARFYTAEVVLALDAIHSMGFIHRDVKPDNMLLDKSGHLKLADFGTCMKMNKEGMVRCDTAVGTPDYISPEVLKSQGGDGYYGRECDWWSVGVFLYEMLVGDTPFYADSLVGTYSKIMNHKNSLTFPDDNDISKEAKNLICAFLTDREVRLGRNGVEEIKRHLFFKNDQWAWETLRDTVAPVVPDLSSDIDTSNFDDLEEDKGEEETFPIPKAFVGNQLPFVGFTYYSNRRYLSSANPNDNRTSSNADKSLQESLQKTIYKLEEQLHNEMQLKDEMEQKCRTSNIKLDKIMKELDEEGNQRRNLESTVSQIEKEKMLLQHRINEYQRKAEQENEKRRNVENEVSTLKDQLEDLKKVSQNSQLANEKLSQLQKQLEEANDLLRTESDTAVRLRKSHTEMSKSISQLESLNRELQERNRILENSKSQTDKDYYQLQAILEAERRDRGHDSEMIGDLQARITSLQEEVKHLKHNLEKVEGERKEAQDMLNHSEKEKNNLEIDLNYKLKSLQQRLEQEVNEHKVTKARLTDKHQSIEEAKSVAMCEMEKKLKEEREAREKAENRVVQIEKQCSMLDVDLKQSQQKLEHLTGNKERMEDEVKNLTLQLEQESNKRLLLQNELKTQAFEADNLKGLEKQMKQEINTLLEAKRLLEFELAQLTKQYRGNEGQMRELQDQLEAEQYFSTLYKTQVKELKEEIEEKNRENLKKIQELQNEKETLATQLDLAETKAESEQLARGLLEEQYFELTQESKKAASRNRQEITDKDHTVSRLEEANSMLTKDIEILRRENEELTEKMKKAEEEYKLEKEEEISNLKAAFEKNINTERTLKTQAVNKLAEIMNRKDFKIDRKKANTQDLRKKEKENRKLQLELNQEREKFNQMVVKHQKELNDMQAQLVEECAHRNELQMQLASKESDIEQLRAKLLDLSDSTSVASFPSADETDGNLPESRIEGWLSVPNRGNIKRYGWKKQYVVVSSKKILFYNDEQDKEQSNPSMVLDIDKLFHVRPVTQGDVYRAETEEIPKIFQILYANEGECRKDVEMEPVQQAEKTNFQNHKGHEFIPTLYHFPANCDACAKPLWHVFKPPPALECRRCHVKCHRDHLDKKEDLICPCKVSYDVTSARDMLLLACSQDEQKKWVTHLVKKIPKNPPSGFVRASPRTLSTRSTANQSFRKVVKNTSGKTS
Procedure: MRCKα, MRCKβ, ROCK1 and ROCK2 assays were performed using an IMAP fluorescence polarization assay format (Molecular Devices Inc.). […] Typically, dose response analyses were performed over concentration ranges from 0.005-100 μM. […] After 30 min incubation to allow binding reagent to bind phosphorylated peptide, fluorescence polarization was measured on a Tecan Saphire^2 plate reader at excitation (470 nm) and emission (530 nm) wavelengths.

SMILES	Ki (MRCKβ)	Ki (ROCK1)
c1ncc(-c2c[nH]c3nccc(N4CC[C@]5(CCCCN5)C4)c23)cn1 [Example E125, (5R)-2-(3-pyrimidin-5-yl-1H-pyrrolo[2,3-b]pyridin-4-yl)-2,6-diazaspiro[4.5]decane]	31.3 nM	424 nM
c1cc(-c2c[nH]c3nccc(N4CCCNCC4)c23)cnn1 [Example E43, 4-(1,4-diazepan-1-yl)-3-pyridazin-4-yl-1H-pyrrolo[2,3-b]pyridine]	2.61 nM	59.5 nM
Cc1cnc(-c2c[nH]c3nccc(N4CCCC5(CCCCN5)C4)c23)s1 (stereo not shown) [Example E147, 2-[4-(1,8-diazaspiro[5.5]undecan-8-yl)-1H-pyrrolo[2,3-b]pyridin-3-yl]-5-methyl-thiazole]	0.0924 nM	100000 nM
c1csc(-c2c[nH]c3nccc(N4CCC5(CCCN5)C4)c23)n1 (stereo not shown) [Example E154, 2-[4-(1,7-diazaspiro[4.4]nonan-7-yl)-1H-pyrrolo[2,3-b]pyridin-3-yl]thiazole]	0.37 nM	239 nM
c1csc(-c2c[nH]c3nccc(N4CCC[C@]5(CCCCN5)C4)c23)n1 [Example E151, 2-[4-[(6R)-1,8-diazaspiro[5.5]undecan-8-yl]-1H-pyrrolo[2,3-b]pyridin-3-yl]thiazole]	3.21 nM	114 nM
Cc1cnc(-c2c[nH]c3nccc(N4CC[C@]5(CCCCN5)C4)c23)s1 [Example E130, 2-[4-[(5R)-2,6-diazaspiro[4.5]decan-2-yl]-1H-pyrrolo[2,3-b]pyridin-3-yl]-5-methyl-thiazole]	7.23 nM	100000 nM
N#Cc1c[nH]c2nccc(N3CCCCC3Cc3ccccc3)c12 (stereo not shown) [Example E106, 4-(2-benzyl-1-piperidyl)-1H-pyrrolo[2,3-b]pyridine-3-carbonitrile]	805 nM	–
c1cc(-c2c[nH]c3nccc(N4CC[C@]5(CCCCN5)C4)c23)ncn1 [Example E127, (5R)-2-(3-pyrimidin-4-yl-1H-pyrrolo[2,3-b]pyridin-4-yl)-2,6-diazaspiro[4.5]decane]	11.6 nM	175 nM
c1ncc(-c2c[nH]c3nccc(N4CC[C@]5(CCCN5)C4)c23)cn1 [Example E123, 4-[(5R)-1,7-diazaspiro[4.4]nonan-7-yl]-3-pyrimidin-5-yl-1H-pyrrolo[2,3-b]pyridine]	9.88 nM	100000 nM
c1cc(-c2c[nH]c3nccc(N4CCC5(CCCN5)C4)c23)cnn1 (stereo not shown) [Example E161, 4-(1,7-diazaspiro[4.4]nonan-7-yl)-3-pyridazin-4-yl-1H-pyrrolo[2,3-b]pyridine]	0.933 nM	34.1 nM

The next lines start with results.

Ki (MRCKβ)	SMILES	Ki (ROCK1)
42.9 nM	CN(C)C(=O)C1(N)CCN(c2ccnc3[nH]cc(-c4cncnc4)c23)CC1 [Example E198, 4-amino-N,N-dimethyl-1-(3-pyrimidin-5-yl-1H-pyrrolo[2,3-b]pyridin-4-yl)piperidine-4-carboxamide]	–
0.549 nM	c1ccc(-c2c[nH]c3nccc(N4CCC5(CCCCN5)C4)c23)nc1 (stereo not shown) [Example E141, 2-[3-(2-pyridyl)-1H-pyrrolo[2,3-b]pyridin-4-yl]-2,6-diazaspiro[4.5]decane]	109 nM
0.0726 nM	c1ccc(-c2c[nH]c3nccc(N4CCCC5(CCCCN5)C4)c23)nc1 (stereo not shown) [Example E138, 8-[3-(2-pyridyl)-1H-pyrrolo[2,3-b]pyridin-4-yl]-1,8-diazaspiro[5.5]undecane]	319 nM
108 nM	Cc1noc(C)c1-c1c[nH]c2nccc(N3CCCC4(CCCCN4)C3)c12 (stereo not shown) [Example E167, 4-[4-(1,8-diazaspiro[5.5]undecan-8-yl)-1H-pyrrolo[2,3-b]pyridin-3-yl]-3,5-dimethyl-isoxazole]	100000 nM
804 nM	N#Cc1c[nH]c2nccc(N3CCC[C@H]3C(=O)N3CCCCC3)c12 [Example E203, 4-[(2S)-2-(piperidine-1-carbonyl)pyrrolidin-1-yl]-1H-pyrrolo[2,3-b]pyridine-3-carbonitrile]	–
992 nM	N#Cc1c[nH]c2nccc(N3CCC[C@H]3C(=O)N3CCOCC3)c12 [Example E202, 4-[(2S)-2-(morpholine-4-carbonyl)pyrrolidin-1-yl]-1H-pyrrolo[2,3-b]pyridine-3-carbonitrile]	–
